The nature of series [1]: Design of Experiment study on pyrophosphate ion stabilization, stability at 60° C. The format is physicochemical. The conditions noted are these: added pyrophosphate ion as little as ~0.25 molar equivalent. An excerpt:
Specifically the presence of pyrophosphate results in the rapid disappearance of the (R,R)-pyrodach-2 dimer impurity and the RRT-3.1-3.2 impurity.

For series [2] the following is noted: cited from earlier work.
A short description of series [3]: Reversal of PT-112 dimer formation by added pyrophosphate in 5 mg/mL aqueous PT-112 solution at ambient temperature. The format is physicochemical. How it is done: Evidence that added pyrophosphate reverses the formation of PT-112 dimer in aqueous formulations of PT-112 was shown in the following experiment. A 5 mg/mL aqueous solution of PT-112 was prepared by dissolving PT-112 in 10 mM potassium phosphate buffer containing added potassium hydroxide such that the final solution pH was ˜6.5. […] The decrease was not accompanied by the formation of the RRT 3.1-3.2 impurity; nor the formation of any new impurities, rather an increase in the concentration of PT-112 was observed.

As to `O=P1(O)OP(=O)(O)[O][Pt]2([NH][C@@H]3CCCC[C@H]3[NH]2)[O]1` (stereo partly drawn) [(R,R)-pyrodach-2, (R,R)-trans-1,2-cyclohexanediamine-(dihydrogenpyrophosphato)platinum(II)], in series [1], the “overall rate of (R,R)-pyrodach-2 degradation and impurity appearance” value is listed as “dramatic decrease”. The “pKa values of the two acid groups (first)” value in series [2] is “approximately 2.6”. The “pKa values of the two acid groups (second)” value in series [2] is about 4.4. The PT-112 dimer level result in series [3] (5 mg/mL in 10 mM potassium phosphate, pH ~6.5, about 24 hours at ambient temperature) was “about 1.02%”; in series [3] (adjusted to ~pH 7.5 plus 0.5 eq. of pyrophosphate, after 9 days at ambient temperature), “effectively non-detectable level”; in series [3] (in the API), “about 0.33%”. For the same compound, the PT-112 dimer concentration entry in series [3] (adjusted to ~pH 7.5 with potassium hydroxide, 7 day period at ambient temperature, no pyrophosphate) is reported as “progressively decrease”.
